Holding throughout (type): biochemical
In one assay the target is purified human thrombin (Homo sapiens, UniProt P00734). Briefly: Inhibition of purified human thrombin, fibrinogen substrate (selectivity). The conditions noted are these: thrombin 0.7 nM, substrate human fibrinogen 6 μM, fibrin formed read at 405 nm; read-out: IC50 with respect to thrombin.
In assay [1] the target is T1, purified human activated protein C (Homo sapiens, UniProt P04070).
T1 construct: purchased Diagnostica Stago
Briefly: Inhibition of purified human activated protein C, chromogenic substrate S2366. As to conditions: activated protein C 2 nM, inhibitor preincubated 20° C., 30 minutes, substrate pyroGlu-Pro-Arg-pNA 0.39 mM, read at 405 nm; read-out: IC50 with respect to activated protein C.
Protocol: (§1) The inhibitors, enzymes and substrates are diluted in the same buffer (0.01 mM phosphate buffer pH 7.4 containing 0.12M sodium chloride and 0.05% bovine serum albumin in the case of thrombin and 50 mM TRIS-HCl buffer pH 7.4 containing 0.12M sodium chloride, 3 mM calcium chloride and 0.05% bovine serum albumin in the case of activated protein C and plasmin) and then dispensed in a volume of 50 μl onto a polystyrene microplate.

Another assay concerns the target T2, purified human plasmin (Homo sapiens, UniProt P00747).
T2 construct: purified human plasmin (2 nM, Stago); purchased Stago
Briefly: Inhibition of purified human plasmin, chromogenic substrate S2403 (selectivity). The conditions noted are these: plasmin 2 nM, substrate <Glu-Phe-Lys-pNA 0.37 mM, read at 405 nm; read-out: IC50 with respect to plasmin. As to the method:
In order to assess in vitro the inhibitory activity of products of the invention on purified human activated protein C (Diagnostica Stago), the chromogenic substrate pyroGlu-Pro-Arg-pNA (0.39 mM, S2366, Chromogenix) was added to a given amount of activated protein C (2 nM) previously incubated with or without the inhibitor under test (20° C., 30 minutes).
In order to assess in vitro the selectivity with respect to thrombin and plasmin, the same protocol was applied to purified human thrombin (0.7 nM, Sigma) and to purified human plasmin (2 nM, Stago), using as substrates purified human fibrinogen (6 μM, Enzyme Research Laboratories) and the paracitroanilide peptide <Glu-Phe-Lys-pNA (0.37 mM, S2403, Chromogenix), respectively.
The inhibitors, enzymes and substrates are diluted in the same buffer ([…] phosphate buffer pH 7.4 containing 0.12M sodium chloride and 0.05% bovine serum albumin in the case of thrombin and 50 mM TRIS-HCl buffer pH 7.4 containing 0.12M sodium chloride, 3 mM calcium chloride and 0.05% bovine serum albumin in the case of activated protein C and plasmin) and then dispensed in a volume of 50 μl onto a polystyrene microplate.
The paranitroanilide liberated or the fibrin formed by the action of the serine protease is measured spectrophotometrically at 405 nm after reacting for from 10 to 30 minutes at 20° C.

Where a name gives a salt, the structure may show the parent alone.

T1 sequence (P04070 212-461 limits assumed): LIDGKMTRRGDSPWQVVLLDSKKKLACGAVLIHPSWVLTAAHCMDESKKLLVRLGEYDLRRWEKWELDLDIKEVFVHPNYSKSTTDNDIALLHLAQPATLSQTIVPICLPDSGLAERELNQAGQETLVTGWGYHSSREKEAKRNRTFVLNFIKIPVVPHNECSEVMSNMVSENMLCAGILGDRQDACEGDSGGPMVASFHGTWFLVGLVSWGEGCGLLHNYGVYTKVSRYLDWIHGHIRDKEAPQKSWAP
T1 sequence (P04070 43-197 limits assumed): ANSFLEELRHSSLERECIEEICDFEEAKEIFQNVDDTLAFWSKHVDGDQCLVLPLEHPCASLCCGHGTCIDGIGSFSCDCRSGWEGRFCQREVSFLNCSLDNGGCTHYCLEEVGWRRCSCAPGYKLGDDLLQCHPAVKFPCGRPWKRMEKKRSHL
T2 sequence (P00747 581-810 limits assumed): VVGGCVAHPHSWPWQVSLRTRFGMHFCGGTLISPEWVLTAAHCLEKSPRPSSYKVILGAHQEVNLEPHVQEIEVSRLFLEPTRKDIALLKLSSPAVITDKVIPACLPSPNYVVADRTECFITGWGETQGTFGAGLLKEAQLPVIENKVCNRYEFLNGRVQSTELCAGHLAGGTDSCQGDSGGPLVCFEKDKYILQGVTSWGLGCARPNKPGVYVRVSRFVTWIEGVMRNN
T2 sequence (P00747 97-580 limits assumed): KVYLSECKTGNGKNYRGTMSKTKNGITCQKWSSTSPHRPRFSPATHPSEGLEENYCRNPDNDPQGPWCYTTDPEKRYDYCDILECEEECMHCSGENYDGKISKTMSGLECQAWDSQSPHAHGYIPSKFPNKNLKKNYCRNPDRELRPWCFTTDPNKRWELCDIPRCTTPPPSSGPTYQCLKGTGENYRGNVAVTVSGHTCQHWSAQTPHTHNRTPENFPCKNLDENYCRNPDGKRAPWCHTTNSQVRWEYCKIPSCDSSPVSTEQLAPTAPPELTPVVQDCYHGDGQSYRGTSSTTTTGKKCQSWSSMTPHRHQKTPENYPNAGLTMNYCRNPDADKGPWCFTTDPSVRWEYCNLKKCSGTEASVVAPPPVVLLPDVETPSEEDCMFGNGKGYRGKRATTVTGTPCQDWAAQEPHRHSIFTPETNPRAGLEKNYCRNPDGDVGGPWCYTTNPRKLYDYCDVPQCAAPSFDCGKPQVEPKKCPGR
Protocol for purified human thrombin: as §1

In the case of `N=C(N)c1ccc(CNC(=O)C2(NC(=O)[C@H](NCC(=O)O)C3CCCCC3)Cc3ccccc3C2)cc1` [Example 1, {[(1R)-2-({2-[({4-Amidinobenzyl}-amino)-carbonyl]-indan-2-yl}-amino)-1-cyclohexyl-2-oxoethyl]-amino}acetic acid hydrochloride], the results for the IC50 (on purified human thrombin; in assay [1]; at purified human plasmin) were above 33 µM, 0.82 µM and 1.1 µM, respectively.

Values taken from patent US7265220B2, “Amino acid derivatives, method for production thereof and pharmaceutical compositions comprising said derivative” (Les Laboratories Servier, priority 2002, dated 2007).
